From BindingDB's records for doi:10.1007/s002100000217 (Croissy-Sur-Seine Paris, 2000)
Values joined by “and” are separate entries in the source; they are usually repeats but may differ in a detail not shown here. Equal entries are not always repeated.

Each compound was assayed against D(3) dopamine receptor (Homo sapiens, UniProt P35462).
D(3) dopamine receptor, sequence (P35462 as listed by the source): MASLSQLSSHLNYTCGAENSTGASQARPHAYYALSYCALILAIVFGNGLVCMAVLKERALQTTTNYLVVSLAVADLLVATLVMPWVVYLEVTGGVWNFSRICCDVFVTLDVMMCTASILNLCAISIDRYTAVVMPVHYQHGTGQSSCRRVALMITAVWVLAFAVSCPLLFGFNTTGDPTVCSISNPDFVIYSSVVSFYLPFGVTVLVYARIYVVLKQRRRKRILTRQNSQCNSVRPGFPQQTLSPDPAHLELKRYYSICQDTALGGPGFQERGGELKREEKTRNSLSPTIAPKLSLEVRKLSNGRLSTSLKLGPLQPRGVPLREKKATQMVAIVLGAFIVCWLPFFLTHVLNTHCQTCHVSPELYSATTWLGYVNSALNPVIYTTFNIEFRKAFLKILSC

Question: With `CCCN1CCO[C@@H]2c3cc(O)ccc3OC[C@H]21` as the compound, how does the Ki read?
Answer: The Ki was 2.14 nM and 7.59 nM and 3.55 nM.

Question: `CCCN(CCC)C1CCc2cc3c(cc2C1)OCC3` (centres undefined) was tested. Which Ki did it give?
Answer: Its Ki is 12.3 nM and 33.1 nM and 11.5 nM.

Question: For `CCCN(CCC)C1CCc2cc(CS(=O)(=O)c3ccc(OC)cc3)ccc2C1` (centres undefined) [GR218231], which Ki is on record?
Answer: Its Ki is 1.12 nM and 1.95 nM and 1.38 nM.

Question: With `N#Cc1ccc2c(c1)[C@H]1CN(CCCCNC(=O)c3ccc(-c4ccccc4)cc3)C[C@@H]1CO2` [S33084] as the compound, how does the Ki read?
Answer: Its Ki is 0.302 nM and 0.933 nM and 0.372 nM.
